Laboratory results: US8703813B2, “Compound with spiro chiral carbon backbone, preparation method thereof, and pharmaceutical composition containing the same” (SNU R & DB Foundation, priority 2008, dated 2014)

Experiments:
Runx2, Osteocalcin, Msx2 = experiment: Real time PCR of osteoblast differentiation mark factors; assay type: cell-based, mouse; conditions: C3H/10T1/2 treated for 6 days, RTPCR
Procedure: An aliquot 116V and an aliquot 116VI extracted and partitioned from sponges are dissolved in a DMSO solvent, and used to treat the C3H/10T1/2 cell line, mesenchymal progenitor cells, at concentrations of 1, 2.5, 5, 10, and 20 ug/ml. […] Since then, the same experiment was performed on the compound (1163), the compound 2 (1162), the compound 3 (1161), and the compound 4 (1164), which were purely separated from the aliquots 116V and 116VI, and as a result, it could be confirmed that the osteoblast differentiation ability was increased in the compounds 1, 3, and 4. […] To study a mechanism with respect to osteoblast differentiation ability, the C3H/10T1/2 cell lines were treated with the compound 1 and the compound 4 for 6 days, respectively. […] Also, the C3H/10T1/2 cell lines were treated with the compound 1 and the compound 4 for 6 days, respectively. […] Furthermore, it could be ascertained that combining of Runx2 and TAZ proteins was increased by treatment of the compounds and thus the activity of Runx2-meditated transcription was increased. The compound 5, which is an ester derivative of the compound 1 (1163), was synthesized in order to prepare a material having more excellent bioactivity, and the structure of the compound 5 obtained thus was determined. […]

C3H/10T1/2 cells = experiment: Adipocyte differentiation inhibitory ability (Oil Red O staining); assay type: cell-based, mouse
Procedure: C3H/10T1/2 cells, which are mouse mesenchymal progenitor cells purchased from ATCC, were diluted in DMEM (Dulbecco's Modified Eagle Medium) medium containing 5.958 g/L HEPES, 3.7 g/L sodium bicarbonate and 10% FBS (fetal bovine serum), and cultured in 24-well culture plates at a density of 4×10^4 cells/well, in the presence of 5% CO2 at 37° C. for 2 days. When the cultured cells were grown to 90˜100% confluency in the culture plates, the cells were cultured in DMEM medium containing 10% FBS, to which 5μ/ml insulin, 1 μM dexamethason, and 5 μM troglitazone were added, in the presence of 5% CO2 at 37° C. for 8 days, to induce differentiation into adipocyte. The medium was exchanged every other day during differentiation. The C3H/10T1/2 cell line, in which differentiation into the adipocyte was induced, was fixed with 3.7% formaldehyde at room temperature for 30 minutes. An oil Red O solution dissolved in isopropanol at a concentration of 0.5% was diluted in distilled water at a ratio of 6:4, filtered through a 0.2 μm filter, and poured to the fixed cell line, which was stained for 1 hour. In order to observe only the cells differentiated into the adiopocyte, the dye solution was removed and the cells were washed with distilled water two times.
116V specimen extracted from sponge was dissolved in DMSO solvent, and allowed to treat C3H/10T1/2 cell lines, which are mouse mesenchymal progenitor cells, at concentrations of 1, 2.5, 5, 10, and 20 μg/ml. […] Then, after specimens of the compound 1 (1163), the compound 2 (1162), the compound 3 (1161), and the compound 4 (1164), which were purely separated from the 116V and 116VI species were obtained, the same experiment was performed. […] Remarkable cytotoxicity was not observed in each of the specimens during differentiation of adipocytes (FIG. 8).

CC(C)=CCC/C(C)=C/[C@H]1CC(C)=C[C@@]2(C=C(CO)[C@@H]3CC(=O)C(C)=C[C@@H]3O2)O1 [Compound 1]
transcription degree of differentiation mark factors (Runx2, Osteocalcin, Msx2, etc.) (Runx2, Osteocalcin, Msx2): remarkably increased
adipocyte differentiation inhibitory ability at low concentration (C3H/10T1/2 cells; C3H/10T1/2, 1 μg/ml): remarkable adipocyte differentiation inhibitory ability
adipocyte differentiation ability (C3H/10T1/2 cells; C3H/10T1/2, 10 μg/ml): remarkably decreased
